Test results taken from patent US10722505B2, “Substituted 2,4 diamino-quinoline as new anticancer agents” (GENOSCIENCE PHARMA, priority 2014, dated 2020).
Counter-ions that a name gives are not always drawn. Values belong to the compound of their own block, whether it stands above or below them.

What was measured:
[1] = system: LI1646 HCC patient derived cells; assay: CellTiter-Glo growth inhibition, HCC patient-derived cells LI1646; type: cell-based, human; conditions: LI1646, 72 hours
Description: (§1) The patient derived Hepatocellular Carcinoma (HCC) cells were maintained in medium respectively described in table 15 containing 1% penicillin-streptomycin (Life Technologies, 15070-063), with a supplements for primary cell culture (PCS) containing hydrocortisone (50 nM), Epidermal Growth Factor (20 ng/ml), β-fibroblast Growth Factor (10 ng/ml), Heparin (2 μg/ml) ITS liquid media supplement (1×) and non-essential amino acid (NEAA, 0.01 mM, 1×). The primary cell were cultured in a humidified atmosphere (95% relative humidity) with 5% CO2 at 37° C.
(§2) The cell growth inhibition assay was performed as described previously in example 5 using the CellTiter-Glo® luminescent cell viability assay as described by the manufacturer (Promega, Ref G7571). The number of cells seeded per well (in 96-Well Flat Clear Bottom Black Polystyrene TC-Treated Microplates, Cat #3340, Corning®) is described in the table 16. A backseal black sticker (Cat #6005189, Perkin Elmer) was placed to the bottom of each plate before recording CellTiter-Glo® luminescence.
(§3) The experimental data are analyzed using a computer program, Graphpad Prism V 5.0 (GraphPad Software, Inc. La Jolla, Calif.) and EC50 values were determined as the dose of compound required to reduce absorbance values to 50% of the signal obtained for vehicle treated cell cultures and were a mean of at least three independent experiments.

[2] = system: LI0801 HCC patient derived cells; assay: CellTiter-Glo growth inhibition, HCC patient-derived cells LI0801; type: cell-based, human; conditions: LI0801, 72 hours
Description: as §1, §2, §3

[3] = system: LI1098 HCC patient derived cells; assay: CellTiter-Glo growth inhibition, HCC patient-derived cells LI1098; type: cell-based, human; conditions: LI1098, 72 hours
Description: as §1, §2, §3

[4] = system: LI0050 HCC patient derived cells; assay: CellTiter-Glo growth inhibition, HCC patient-derived cells LI0050; type: cell-based, human; conditions: LI0050, 72 hours
Description: as §1, §2, §3

[5] = system: LI0612 HCC patient derived cells; assay: CellTiter-Glo growth inhibition, HCC patient-derived cells LI0612; type: cell-based, human; conditions: LI0612, 72 hours
Description: as §1, §2, §3

[6] = system: LI1005 HCC patient derived cells; assay: CellTiter-Glo growth inhibition, HCC patient-derived cells LI1005; type: cell-based, human; conditions: LI1005, 72 hours
Description: as §1, §2, §3

[7] = system: LI0752 HCC patient derived cells; assay: CellTiter-Glo growth inhibition, HCC patient-derived cells LI0752; type: cell-based, human; conditions: LI0752, 72 hours
Description: as §1, §2, §3

[8] = system: LI0574 HCC patient derived cells; assay: CellTiter-Glo growth inhibition, HCC patient-derived cells LI0574; type: cell-based, human; conditions: LI0574, 72 hours
Description: as §1, §2, §3

[9] = system: MOLM-14 cell line; assay: CellTiter-Glo cell viability / growth inhibition assay, MOLM-14 (Example 5); type: cell-based; conditions: Homo sapiens, 72 h; for viability at 4 µM / viability at 10 µM: MOLM-14
Description: (§4) All cell lines were maintained in medium containing 1% penicillin-streptomycin (Dutscher, P06-07100) and 10% Fetal Bovine Serum (Gibco, W3387L) except 20% for KG-1 cell line and PBMC, and cultured at 37° C. with 5% CO2.
MOLM-14 cell line was maintained in MEM alpha medium (Gibco, 22561-021).
(§5) Cell viability was measured using the CellTiter-Glo® luminescent cell viability assay as described by the manufacturer (Promega, Ref G7571) using an Infinite F200Pro luminometer (Tecan). Briefly, for adherent cells, cells were plated onto 96-well plates (white with clear bottom) in 90 μL of media per well and were allowed to grow overnight before the assay. For cells growing in suspension, cells were plated onto 96-well plates immediately before the assay.
(§6) Compounds were added at different concentrations to each well, and cell cultures were incubated for 72 h. Vehicle (H2O) was used as a control, and all compounds were tested in a constant percentage of H2O. After addition of 100 μL of CellTiter-Glo®, luminescence was measured using an Infinite F200Pro (Tecan). EC50 values were determined as the dose of compound required to reduce luminescent values to 50% of the signal obtained for untreated cell cultures. The experimental data were analyzed using a computer program, Graphpad Prism v5 (GraphPad Software, Inc. La Jolla, Calif.).
All experiments were at least done in duplicate and repeated two independent times.

[10] = system: HepG2 cell line; assay: CellTiter-Glo growth inhibition assay, HepG2; type: cell-based; conditions: Homo sapiens; HepG2, hepatocellular carcinoma, 72 h
Description: as §4
(§7) HepG2, Huh7, HCT-116, MDA-MB-231 and A375 cell lines were cultured in Dulbecco's modified Eagle's medium (Dutscher, L0103).
as §5
as §6, with “Calif.). […]” for “Calif.).”

[11] = system: HCT-116 cell line; assay: CellTiter-Glo growth inhibition assay, HCT-116; type: cell-based; conditions: Homo sapiens; HCT-116, colorectal carcinoma, 72 h
Description: as §4, §7, §5
as §6, with “Calif.). […]” for “Calif.).”

[12] = system: A375 cell line; assay: CellTiter-Glo growth inhibition assay, A375; type: cell-based; conditions: Homo sapiens, A-375; A375, malignant melanoma, 72 h
Description: as §4, §7, §5
as §6, with “Calif.). […]” for “Calif.).”

[13] = system: ALDH+ (CSC) population of MOLM-14 cell line; assay: Aldefluor kit assay, ALDH+ compartment in MOLM-14; type: cell-based, human; conditions: 72 h, control = 100
Description: Analysis of the of aldehyde dehydrogenase (ALDH) compartment and high activity level of aldehyde dehydrogenase activity (ALDH+) was used to detect tumor initiating cells (cancer stem cells, CSC) population. The Aldefluor™ kit assay (StemCell Technologies, 01700) allowed to assess the activity of drugs on CSC cells like in a MOLM-14 acute myeloid leukemia cell line population (ref: Storms, R. W., Trujillo, A. P., Springer, J. B., Shah, L., Colvin, O. M., Ludeman, S. M., & Smith, C. (1999). Isolation of primitive human hematopoietic progenitors on the basis of aldehyde dehydrogenase activity. Proceedings of the National Academy of Sciences, 96(16), 9118-9123). The Aldefluor™ kit assay was used according to the procedure described by the manufacturer. Briefly, MOLM-14 cell line was cultured in MEM alpha medium supplemented with 10% v/v Fetal Bovine Serum, 1% Penicillin-Streptomycin and maintained at 37° C. with 5% CO2. 5·10^5 cells were used in this assay. Each compound was added at different concentrations (see table 8), and cell cultures were incubated for 72 h. Vehicle (H2O) was used as a control, and all compounds were tested in a constant percentage of vehicle. Cells obtained from cell culture were incubated for 45 minutes at 37° C. with Aldefluor™ buffer assay containing the Bodipy™-aminoacetaldehyde, a fluorescent ALDH aldehyde substrate. ALDH converts the fluorescent substrate BAAA to the Bodipy™-aminoacetic acid (BAA) which is retained in the cell. An active efflux inhibitor is present in the Adelfluor™ assay buffer in order to avoid the active efflux from the cell of the substrate product ALDH dependent converted BAA. The fluorescent signal is directly proportional to the ALDH activity in the cells and is measured by flow cytometry. A negative control is used to measure the background fluorescence level. For such purpose, 4-(N,N-diethylamino)-benzaldehyde (DEAB) was used as selective ALDH inhibitor. A viability cell count was performed using LIVE/DEAD® Fixable Far Red Dead Cell Stain Kit (Invitrogen). The experimental data are analyzed using a computer program, Graphpad Prism v5 (GraphPad Software, Inc. La Jolla, Calif.) and EC50 values were determined as the dose of compound required to reduce absorbance values to 50% of the signal obtained for vehicle treated cell cultures.

[14] = system: MOLM-14 cell line; assay: CellTiter-Glo growth inhibition assay, MOLM-14 (Example 6); type: cell-based, human; conditions: MOLM-14, 72 h, method of Example 6
Description: MOLM-14 cell line was cultured in MEM alpha medium supplemented with 10% v/v Fetal Bovine Serum, 1% Penicillin-Streptomycin and maintained at 37° C. with 5% CO2. 10,000 cells were plated onto 96-well plates immediately before the assay.
Each compound was added at different concentrations (combinations of six concentrations) to each well, and cell cultures were incubated for 72 h. Vehicle (H2O) was used as a control, and all compounds were tested in a constant percentage of vehicle. Cell outgrowth was measured using the CellTiter-Glo® luminescent cell viability assay as described by the manufacturer (Promega, Ref G7571 Madison, Wis., USA) using a Centro (Berthold, France) plate reader.
In each experiment, each point represents the average of triplicates in cell culture.
The experimental data are analyzed using a computer program, Graphpad Prism v5 (GraphPad Software, Inc. La Jolla, Calif.) and EC50 values were determined as the dose of compound required to reduce absorbance values to 50% of the signal obtained for vehicle treated cell cultures.

[15] = system: BEL-7402 cells line; assay: CellTiter-Glo growth inhibition assay, BEL-7402 (internal control); type: cell-based; conditions: Homo sapiens, 72 h
Description: When performing the assay, dose response test of Doxorubicin on BEL-7402 cells line (human primary hepatocellular carcinoma) will be used as internal control in each assay plate for the assay. The MEM medium supplemented with 5% H2O (5×) will be added into the cells as a negative controls. The final H2O concentration was 1% in each well.
Cells in log-phase are collected and counted. Cell suspensions are added to each well of 384-well plate at 800 cells per well (total volume 40 μl). The margin wells are filled with PBS buffer. Test compound at various concentrations are added in duplicates (add 10 μl 5× compound solutions to the plate). The assay plate is incubated for 72 h in 37° C./5% CO2 incubator. Cell viability was measured using the CellTiter-Glo® luminescent cell viability assay as described by the manufacturer (Promega, Ref G7571). After addition of 100 μL of CellTiter-Glo® reactifs solution, luminescence was measured using a PHERAstar Plus luminometer. Data were recorded by PHERAstar Plus, Data acquisition and analysis were performed using Microsoft Excel program and GraphPad Prism v.6 software.

[16] = system: 786-O cell line; assay: CellTiter-Glo growth inhibition assay, 786-O; type: cell-based; conditions: Homo sapiens, 786-0, 72 h
Description: (§8) CAKI-1 and 786-0 cell lines were maintained in RPMI 1640 medium (Dutscher, L0498) containing 1% penicillin-streptomycin (Dutscher, P06-07100) and 10% Fetal Bovine Serum (Gibco, W3387L) and cultured at 37° C. with 5% CO2.
as §5, with “Briefly,” for “Briefly, for adherent cells,”, “assay.” for “assay. For cells growing in suspension, cells were plated onto 96-well plates immediately before the assay.”
(§9) Compounds 2-3 and two reference compounds (Sorafenib and Sunitinib) were added at different concentrations to each well, and cell cultures were incubated for 72 h. For compound 2-3 analysis, H2O was used as a negative control (=untreated) and all concentrations were tested in a constant percentage of H2O. For Sorafenib and Sunitinib analysis, DMSO was used as a negative control (=untreated) and all concentrations were tested in a constant percentage of DMSO. 72 h after incubation of compounds, 100 μL of CellTiter-Glo® were added to each well and luminescence was measured using an Infinite F200Pro (Tecan). EC50 values were determined as the dose of compound required to reduce luminescent values to 50% of the signal obtained for untreated cell cultures. The experimental data were analyzed using a computer program, Graphpad Prism v5 (GraphPad Software, Inc. La Jolla, Calif.). All experiments were at least done in triplicate and repeated at least three independent times.

[17] = system: CAKI-1 cell line; assay: CellTiter-Glo growth inhibition assay, CAKI-1; type: cell-based; conditions: Homo sapiens, CAKI-1, 72 h
Description: as §8
as §5, with “Briefly,” for “Briefly, for adherent cells,”, “assay.” for “assay. For cells growing in suspension, cells were plated onto 96-well plates immediately before the assay.”
as §9

Compound: N.N.[Cl][Pt][Cl] [Cisplatin]
EC50 [1]: 10 µM
EC50 [2]: 1.5 µM
EC50 [3]: 5.1 µM
EC50 [4]: 1.3 µM
EC50 [5]: 16.3 µM
EC50 [6]: 5.9 µM
EC50 [7]: 2.6 µM
EC50 [8]: 3.6 µM

Compound: CC(C)(C)NC1CCN(c2cc(Nc3ccc(Cl)cc3)nc3ccccc23)CC1 [Compound 1-6, 2-(4-chlorophenylamino)-4-(4-tert-butylaminopiperidin-1-yl)-quinoline hydrochloride salt]
viability at 4 µM [9]: 71.8%
viability at 10 µM [9]: 12.1%

Compound: Cc1cc(Nc2cc(N3CCC(NC(C)(C)C)CC3)c3ccccc3n2)ccc1Nc1ncccn1 [Compound 3-5, 2-[3-methyl-4-(pyrimidin-2-ylamino)phenylamino]-4-(4-tert-butylaminopiperidin-1-yl)-quinoline hydrochloride salt]
viability at 4 µM [9]: 78.7%
viability at 10 µM [9]: 8.7%

EC50 [10]: 6.3 µM
EC50 [11]: 1.8 µM
EC50 [12]: 1.4 µM
EC50 ([9]; MOLM-14, acute myeloïd leukemia, FLT3-ITD heterozygote+/−): 2.3 µM
Compound: Cc1cc(Nc2cc(N3CCC(NC(C)(C)C)CC3)c3ccccc3n2)ccc1Nc1nccc(-c2cccnc2)n1 [Compound 4-3, 2-{4-[4-(pyridin-3-yl)-2-pyrimidinamino]-3-methyl-phenylamino}-4-(4-tert-butylaminopiperidin-1-yl)-quinoline hydrochloride salt]
viability at 4 µM [9]: 0.5%
viability at 10 µM [9]: 0.2%

EC50 [14]: 0.29 µM
Compound: Nc1ccn([C@@H]2O[C@H](CO)[C@@H](O)[C@@H]2O)c(=O)n1 [Cytarabin, reference compound]
ALdefluor positive CSCs (%) ([13]; MOLM-14, 1 μM): 130%
ALdefluor positive CSCs (%) ([13]; MOLM-14, 3 μM): 116%

EC50 [15]: 0.15 µM
Compound: COc1cccc2c1C(=O)c1c(O)c3c(c(O)c1C2=O)C[C@@](O)(C(=O)CO)C[C@@H]3O[C@H]1C[C@H](N)[C@H](O)[C@H](C)O1 [Doxorubicin]

EC50 ([1]; Homo sapiens): 10.3 µM
EC50 ([2]; Homo sapiens): 5.7 µM
EC50 ([3]; Homo sapiens): 10.9 µM
EC50 ([4]; Homo sapiens): 9.1 µM
EC50 [16]: 6.8 µM
EC50 ([5]; Homo sapiens): 17.9 µM
EC50 ([6]; Homo sapiens): 14.5 µM
EC50 ([7]; Homo sapiens): 6.3 µM
EC50 ([8]; Homo sapiens): 8.7 µM
Compound: CNC(=O)c1cc(Oc2ccc(NC(=O)Nc3ccc(Cl)c(C(F)(F)F)c3)cc2)ccn1 [Sorafenib]
EC50 [17]: 4.5 µM

EC50 [16]: 6 µM
Compound: CCN(CC)CCNC(=O)c1c(C)[nH]c(/C=C2\C(=O)Nc3ccc(F)cc32)c1C [Sunitinib]
EC50 [17]: 1.7 µM
